Laboratory results: US11535633B2, “Fused tricyclic heterocycle compounds and therapeutic uses thereof” (Jiangsu Hengrui Medicine Co., Ltd., priority 2018, dated 2022)

Assays:
[1] = molecular target: T1, hSTING c-terminal domain (purified hSTING aa154-342) (Homo sapiens, UniProt Q86WV6); assay: Thermal shift assay for measuring the relative binding affinity to hSTING c-terminal domain; settings: Tm of sample minus mean Tm of negative control (buffer, 2% DMSO), SYPRO Orange
T1 construct: Purified hSTING (aa154-342)
Experimental: Test Example 1. Thermal Shift Assay for Measuring the Relative Binding Affinity to hSTING c-Terminal Domain
From each of the 10 mM stock solutions of compounds in DMSO, dilutions are made to create samples with three concentrations 10 mM, 5 mM and 2.5 mM. From these dilutions a final 50 fold dilution is made into assay buffer, giving concentrations of 200 μM, 100 μM, and 50 μM. From each of the buffer dilutions, 5 μL is added to the 384 well assay plate. A positive control is setup with cGAMP using the same dilution scheme as the ligands. A baseline thermal shift for the negative control is determined using buffer and 2% DMSO.
An aliquot of protein is thawed on ice and SYPRO orange reagent is brought to room temperature. The 5000× SYPRO orange stock is diluted in assay buffer to a concentration of 10×. Protein is diluted to a concentration of 10 μM in the prepared buffer/dye solution. Five micro-liters of protein/buffer/dye solution is added to each of the sample and control wells, and the plate is sealed with the provided films. The plate is centrifuged for 5 min at 20° C. at 1000 rpm.
On the Light Cycler instrument, measurements are made over a temperature gradient from 20° C. to 99° C. at 0.07° C./s and data acquisitions collected at a rate of 8/° C. is used to measure the change in fluorescence as a function of temperature. Data analysis is performed using the Roche Light Cycler Software to determine the melting temperature (Tm ° C.) of each sample. A mean Tm ° C. for the negative control is calculated and subtracted from each of the samples to generate the ΔTm ° C. values for each of the ligands.
The relative binding affinity to hSTING c-terminal domain of the compounds of the present invention was determined by the above assay, and ΔTm ° C. values are shown in the following table 1.

[2] = molecular target: T2, STING in THP1-Dual KI-hSTING-R232 cells (Homo sapiens, UniProt Q86WV6, H232R); assay: Human THP1 reporter cell assay (IRF luciferase reporter); assay type: cell-based; settings: 24 hours incubation
T2 construct: host or cells: THP1-Dual KI-hSTING-R232 cells (human monocytic THP-1 reporter line)
Experimental: Test Example 2. Human THP1 Reporter Cell Assay
• 1. Human THP1-Dual KI-hSTING-R232 Cells (InvivoGen, Cat. #thpd-r232) • 2. QUANTI-LUC (InvivoGen, Cat. #rep-qlc2) • 3. Media for cell culture and compound dilution: RPMI with high glucose and glutamine (Genesee, Cat. #25-506), 10% fetal bovine serum (Life Technologies, Cat. #10082147), 25 mM HEPES (Genesee, Cat. #25-534), 100 μg/ml Normocin (InvivoGen, Cat. #ant-nr-2), 10 μg/ml blasticidin (InvivoGen, Cat. #ant-bl-05), 100 μg/ml Zeocin (InvivoGen, Cat. #ant-zn-5p) and Penicillin-Streptomycin (100×) (Life Technologies, Cat. #15140122) • 4. Infinite M1000 plate reader (TECAN) Experimental Procedure
Activation of STING in THP1-Dual KI-hSTING-R232 cells was determined by measuring the luminescence signal resulting from the expression of the IRF luciferase reporter gene. All reagent preparation and assay procedures were conducted according to the protocols provided by InvivoGen. In brief, test compounds and cells (1×10^5 cells per well) were dispensed into 96-well plates with a final volume per well of 150 μl. Plates were incubated in a humidified, 5% CO2 incubator at 37° C. for 24 hours. The expression level of the reporter gene was measured by transferring 20 μl of the supernatant to a non-transparent 96-well plate to which 50 μl of QUANTI-LUC was dispensed into each well. The resulting luminescence signal was immediately read using a TECAN plate reader. The background luminescence signal from media was subtracted. The fold induction effect of the luminescence signal at each compound concentration was determined relative to controls that lack compound treatment. The plot of fold induction effect versus the log of compound concentration was fit in GraphPad Prism with a 4-parameter concentration response equation to calculate EC50 and Emax.
Activation of STING in THP1 of the compounds in the present invention was determined by the above assay, and EC50 values are shown in the following table 2.

T1 sequence (Q86WV6 154-342): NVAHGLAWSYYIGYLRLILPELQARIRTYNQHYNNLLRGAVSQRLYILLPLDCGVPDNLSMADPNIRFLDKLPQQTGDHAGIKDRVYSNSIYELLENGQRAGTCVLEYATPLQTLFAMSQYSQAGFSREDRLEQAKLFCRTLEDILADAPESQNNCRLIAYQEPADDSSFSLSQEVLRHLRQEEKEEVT
T2 sequence (Q86WV6 whole entry H232R): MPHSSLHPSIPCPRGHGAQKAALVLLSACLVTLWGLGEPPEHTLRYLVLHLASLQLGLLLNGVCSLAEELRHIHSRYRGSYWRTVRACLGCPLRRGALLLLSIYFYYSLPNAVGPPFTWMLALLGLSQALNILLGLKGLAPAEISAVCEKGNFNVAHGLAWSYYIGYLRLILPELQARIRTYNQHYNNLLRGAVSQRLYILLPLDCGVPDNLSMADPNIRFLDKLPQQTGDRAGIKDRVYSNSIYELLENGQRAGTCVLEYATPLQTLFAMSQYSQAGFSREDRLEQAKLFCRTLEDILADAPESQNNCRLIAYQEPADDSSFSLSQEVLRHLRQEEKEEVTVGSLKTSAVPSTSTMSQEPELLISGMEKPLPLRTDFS

ΔTm at 100 µM [1]	EC50 [2]	SMILES
1 °C	–	CCn1nc(C)cc1C(=O)Nc1nc2cc(C(N)=O)cc(OC)c2n1CCCCC1COc2cc(C(N)=O)cc3nc(NC(=O)c4cc(C)nn4CC)n1c23 (stereo in doubt) [Example 16, (S)-3-(4-(5-carbamoyl-2-(1-ethyl-3-methyl-1H-pyrazole-5-carboxamido)-7-methoxy-1H-benzo[d]imidazol-1-yl)butyl)-2-(1-ethyl-3-methyl-1H-pyrazole-5-carboxamido)-3,4-dihydro-5-oxa-1,2a-diazaacenaphthylene-7-carboxamide]
1.1 °C	–	CCn1nc(C)cc1C(=O)Nc1nc2cc(C(N)=O)cc3c2n1CCO3 [Example 2, 2-(1-ethyl-3-methyl-1H-pyrazole-5-carboxamido)-3,4-dihydro-5-oxa-1,2a-diazaacenaphthylene-7-carboxamide]
0.7 °C	–	CCn1nc(C)cc1C(=O)N(C)c1nc2cc(C(N)=O)cc3c2n1CCO3 [Example 3, 2-(1-ethyl-N,3-dimethyl-1H-pyrazole-5-carboxamido)-3,4-dihydro-5-oxa-1,2a-diazaacenaphthylene-7-carboxamide]
4.6 °C	–	CCn1nc(C)cc1C(=O)Nc1nc2cc(C(N)=O)cc3c2n1[C@@H](CCCNC(=O)OCc1ccccc1)CO3 [Example 4, (S)-benzyl (3-(7-carbamoyl-2-(1-ethyl-3-methyl-1H-pyrazole-5-carboxamido)-3,4-dihydro-5-oxa-1,2a-diazaacenaphthylen-3-yl)propyl)carbamate]
–	> 20000 nM	C/C=C/C[C@@H]1COc2cc(C(N)=O)cc3nc(NC(=O)c4cc(C)nn4CC)n1c23 [Example 5-1, (R,E)-3-(but-2-en-1-yl)-2-(1-ethyl-3-methyl-1H-pyrazole-5-carboxamido)-3,4-dihydro-5-oxa-1,2a-diazaacenaphthylene-7-carboxamide]
-0.5 °C	–	C=CC[C@@H]1COc2cc(C(N)=O)cc3nc(NC(=O)c4cc(C)nn4CC)n1c23 [Example 6, (R)-3-allyl-2-(1-ethyl-3-methyl-1H-pyrazole-5-carboxamido)-3,4-dihydro-5-oxa-1,2a-diazaacenaphthylene-7-carboxamide]
5.4 °C	–	CCC[C@H]1COc2cc(C(N)=O)cc3nc(NC(=O)c4cc(C)nn4CC)n1c23 [Example 7, (S)-2-(1-ethyl-3-methyl-1H-pyrazole-5-carboxamido)-3-propyl-3,4-dihydro-5-oxa-1,2a-diazaacenaphthylene-7-carboxamide]
7.5 °C	2600 nM	CCC=CC[C@H]1COc2cc(C(N)=O)cc3nc(NC(=O)c4cc(C)nn4CC)n1c23 [Example 8, (S)-2-(1-ethyl-3-methyl-1H-pyrazole-5-carboxamido)-3-(pent-2-en-1-yl)-3,4-dihydro-5-oxa-1,2a-diazaacenaphthylene-7-carboxamide]
-0.1 °C	–	CCn1nc(C)cc1C(=O)Nc1nc2cc(C(N)=O)cc3c2n1[C@@H](CC(O)CO)CO3 (stereo partly drawn) [Example 9, (3S)-3-(2,3-dihydroxypropyl)-2-(1-ethyl-3-methyl-1H-pyrazole-5-carboxamido)-3,4-dihydro-5-oxa-1,2a-diazaacenaphthylene-7-carboxamide]
2 °C	–	CCn1nc(C)cc1C(=O)Nc1nc2cc(C(N)=O)cc(OC)c2n1CCCNCCC1COc2cc(C(N)=O)cc3nc(NC(=O)c4cc(C)nn4CC)n1c23 (stereo not shown) [Example 17, 3-(2-((3-(5-carbamoyl-2-(1-ethyl-3-methyl-1H-pyrazole-5-carboxamido)-7-methoxy-1H-benzo[d]imidazol-1-yl)propyl)amino)ethyl)-2-(1-ethyl-3-methyl-1H-pyrazole-5-carboxamido)-3,4-dihydro-5-oxa-1,2a-diazaacenaphthylene-7-carboxamide]
13 °C	100 nM	CCn1nc(C)cc1C(=O)Nc1nc2cc(C(N)=O)cc(OCCO)c2n1CCC[C@H]1COc2cc(C(N)=O)cc3nc(NC(=O)c4cc(C)nn4CC)n1c23 [Example 20, (S)-3-(3-(5-carbamoyl-2-(1-ethyl-3-methyl-1H-pyrazole-5-carboxamido)-7-(2-hydroxyethoxy)-1H-benzo[d]imidazol-1-yl)propyl)-2-(1-ethyl-3-methyl-1H-pyrazole-5-carboxamido)-3,4-dihydro-5-oxa-1,2a-diazaacenaphthylene-7-carboxamide]
13 °C	60 nM	CCn1nc(C)cc1C(=O)Nc1nc2cc(C(N)=O)cc(OCCCOC)c2n1CCC[C@H]1COc2cc(C(N)=O)cc3nc(NC(=O)c4cc(C)nn4CC)n1c23 [Example 21, (S)-3-(3-(5-carbamoyl-2-(1-ethyl-3-methyl-1H-pyrazole-5-carboxamido)-7-(3-methoxypropoxy)-1H-benzo[d]imidazol-1-yl)propyl)-2-(1-ethyl-3-methyl-1H-pyrazole-5-carboxamido)-3,4-dihydro-5-oxa-1,2a-diazaacenaphthylene-7-carboxamide]
11 °C	700 nM	CCn1nc(C)cc1C(=O)Nc1nc2cc(C(N)=O)cc(OCCCOP(=O)(O)O)c2n1CCC[C@H]1COc2cc(C(N)=O)cc3nc(NC(=O)c4cc(C)nn4CC)n1c23 [Example 23, (S)-3-((5-carbamoyl-1-(3-(7-carbamoyl-2-(1-ethyl-3-methyl-1H-pyrazole-5-carboxamido)-3,4-dihydro-5-oxa-1,2a-diazaacenaphthylen-3-yl)propyl)-2-(1-ethyl-3-methyl-1H-pyrazole-5-carboxamido)-1H-benzo[d]imidazol-7-yl)oxy)propyl dihydrogen phosphate]
–	> 20000 nM	C=CCC1CCCOc2cc(C(N)=O)cc3nc(NC(=O)c4cc(C)nn4CC)n1c23 (stereo not shown) [Example 27, 10-allyl-1-(1-ethyl-3-methyl-1H-pyrazole-5-carboxamido)-7,8,9,10-tetrahydro-6-oxa-2,10a-diazacycloocta[cd]indene-4-carboxamide]
–	> 20000 nM	CCn1nc(C)cc1C(=O)Nc1nc2cc(C(N)=O)cc3c2n1[C@@H](C/C=C/CC(CC(=O)c1cc2cc(OC)c(OC)cc2s1)C(=O)O)CO3 (stereo partly drawn) [Example 28, (E)-6-((S)-7-carbamoyl-2-(1-ethyl-3-methyl-1H-pyrazole-5-carboxamido)-3,4-dihydro-5-oxa-1,2a-diazaacenaphthylen-3-yl)-2-(2-(5,6-dimethoxybenzo[b]thiophen-2-yl)-2-oxoethyl)hex-4-enoic acid]
–	12000 nM	C=CC[C@H]1CNc2cc(C(N)=O)cc3nc(NC(=O)c4cc(C)nn4CC)n1c23 [Example 29, (S)-4-allyl-2-(1-ethyl-3-methyl-1H-pyrazole-5-carboxamido)-5,6-dihydro-4H-imidazo[1,5,4-de]quinoxaline-8-carboxamide]
–	1500 nM	C=CC[C@H]1CN(CCCOC)c2cc(C(N)=O)cc3nc(NC(=O)c4cc(C)nn4CC)n1c23 [Example 30, (S)-4-allyl-2-(1-ethyl-3-methyl-1H-pyrazole-5-carboxamido)-6-(3-methoxypropyl)-5,6-dihydro-4H-imidazo[1,5,4-de]quinoxaline-8-carboxamide]
–	2400 nM	C=CC[C@H]1CN(C)c2cc(C(N)=O)cc3nc(NC(=O)c4cc(C)nn4CC)n1c23 [Example 31, (S)-4-allyl-2-(1-ethyl-3-methyl-1H-pyrazole-5-carboxamido)-6-methyl-5,6-dihydro-4H-imidazo[1,5,4-de]quinoxaline-8-carboxamide]
